{
  "source": "patent US20250312258A1",
  "about": "“2,3-PYRROLIDINEDIONE CONJUGATES AND METHODS OF USING THEREOF” (North Carolina State University, priority 2022, published 2025)",
  "key": {"vanA VRE 700221": {"tested_on": "vanA VRE 700221", "assay": "MIC against vanA VRE 700221", "type": "cell-based, Enterococcus spp.", "conditions": "Enterococcus"}, "vanB VRE 51299": {"tested_on": "vanB VRE 51299", "assay": "MIC against vanB VRE 51299", "type": "cell-based, Enterococcus spp.", "conditions": "Enterococcus"}, "S. aureus VRS-2": {"tested_on": "S. aureus VRS-2", "assay": "VRSA thigh infection model in neutropenic mice", "type": "in vivo, mouse", "conditions": "100 mg/kg IP BID q12h; for bacterial count reduction in thigh tissue relative to the vehicle control group: 26 h post-infection, p<0.05", "description": "(§1) FIG. 8 is a plot comparing the efficacy of linezolid, Compound 4 (AV-0273), and Compound 8 (AV-0267) in the S. aureus VRS-2 thigh infection model, CFU/g thigh. Test animals were rendered neutropenic with cyclophosphamide administration, 150 mg/kg on Day −4 then 100 mg/kg on Day −1 prior to infection on Day 0. On Day 0, animals were intramuscularly inoculated with 8.4×10^4 CFU/mouse (0.1 mL/animal) of the S. aureus VRS-2 strain. The vehicle and the test articles, Compound 4 (AV-0273) and Compound 8 (AV-0267), both at 100 mg/kg, were each intraperitoneally (IP) administered twice with a 12 h interval (BID q12h) at 2 and 14 h after infection. The reference standard, linezolid at 50 mg/kg, was orally (PO) administered BID q12 h starting at 2 h post-infection. Animals were sacrificed at 2 or 26 h post-infection, and the thigh tissues were harvested and weighed from each of the test animals. The bacterial counts (CFU/g thigh) of thigh tissue homogenates were measured.\nas §1, with “FIG. 9” for “FIG. 8”, “of linezolid” for “of linezolid,”, “CFU/g thigh, change in bacterial counts relative to baseline count at 26h post-infection. Data represent the change in bacterial counts in thigh tissue following test article treatment relative to the initial 2 h CFU/g thigh or CFU/thigh at the time of dosing (baseline counts).” for “CFU/g thigh.”, “(BID q12 h)” for “(BID q12h)”, “(CFU/g thigh and CFU/thigh)” for “(CFU/g thigh)”, “were compared.” for “were measured.”\nExample vancomycin-2,3-pyrrolidinediones conjugates were evaluated using an in vivo tissue infection model with vancomycin resistant MRSA:\nAnimal model: Murine thigh infection\nBacteria: VRSA (VRS-2). Gram Positive, Staphylococcus aureus (VRSA, VRS-2), Mouse Infected Thigh Model. VRS-2 is VanA producing SCC Mec II st5 train.\nVancomycin conjugates dose: 100 mg/Kg intraperitoneally (IP).\nApplication: This model assesses the antimicrobial efficacy of test articles in a tissue infection model with vancomycin resistant MRSA. Microbial counts are measured. […]"}, "S. aureus (strain HG003)": {"tested_on": "S. aureus (strain HG003)", "assay": "Time-dependent killing of S. aureus (strain HG003)", "type": "cell-based, Staphylococcus aureus", "conditions": "S. aureus strain HG003, liquid culture, single inoculation, FIG. 2", "from_the_text": "FIG. 2 is a plot showing the time-dependent killing of S. aureus (strain HG003) by vancomycin and an example vancomycin-2-3-pyrrolidinedione conjugate (Compound 4).\n(§2) With these initial results in hand, the time-dependent killing of bacterial strains by the vancomycin-2-3-pyrrolidinedione conjugates was investigated. FIG. 2 is a plot showing the time-dependent killing of S. aureus (strain HG003) by vancomycin and an example vancomycin-2-3-pyrrolidinedione conjugate (Compound 4, also referred to as AV-273). FIG. 3 is a plot showing the time-dependent killing of MRSA (strain LAC) by vancomycin and an example vancomycin-2-3-pyrrolidinedione conjugate (Compound 4)."}, "MRSA (strain LAC)": {"tested_on": "MRSA (strain LAC)", "assay": "Time-dependent killing of MRSA (strain LAC)", "type": "cell-based, Staphylococcus aureus", "conditions": "liquid culture, single inoculation, FIG. 3", "from_the_text": "FIG. 3 is a plot showing the time-dependent killing of MRSA (strain LAC) by vancomycin and an example vancomycin-2-3-pyrrolidinedione conjugate (Compound 4).\nas §2"}, "MSSA ATCC 25923 biofilm": {"tested_on": "MSSA ATCC 25923 biofilm", "assay": "Viable bacteria in supernatant and biofilm after single treatment of MSSA biofilm", "type": "cell-based, Staphylococcus aureus", "from_the_text": "FIG. 5 is a plot showing the effect of a single dose of different concentrations of Compound 4 on the concentration of bacteria in the supernatant over a methicillin-susceptible Staphylococcus aureus (MSSA ATCC 25923). FIG. 6 is a plot showing the time-dependent biofilm population following treatment of a methicillin-susceptible Staphylococcus aureus (MSSA ATCC 25923) biofilm with Compound 4. […] FIG. 5 is a plot showing the effect of a single dose of different concentrations of Compound 4 on the concentration of bacteria in the supernatant over a methicillin-susceptible Staphylococcus aureus (MSSA ATCC 25923). […] FIG. 6 is a plot showing the time-dependent biofilm population following treatment of a methicillin-susceptible Staphylococcus aureus (MSSA ATCC 25923) biofilm with Compound 4."}, "VRSA": {"tested_on": "VRSA", "conditions": "S. aureus VRS-2; cited from earlier work"}},
  "note": "Read-outs that look alike come from different tables or passages of the source.",
  "data": [
    {"smiles": "CCC1C(c2ccc(C(F)(F)F)cc2)=C(O)C(=O)N1C1CCC(NC)CC1", "note": "(centres unmarked) [Compound 4]", "values": [
      {"measurement": "MIC", "setting": "vanA VRE 700221; VRE, the 2nd table, read-out: MIC (vanA VRE 700221)", "result": 8, "unit": "µg/mL"},
      {"measurement": "MIC", "setting": "vanA VRE 700221; vanA VRE 700221, the 3rd table, read-out: MIC", "result": 8, "unit": "µg/mL"},
      {"measurement": "MIC", "setting": "vanB VRE 51299; VRE, the 2nd table, read-out: MIC (vanB VRE 51299)", "result": 2, "unit": "µg/mL"},
      {"measurement": "MIC", "setting": "vanB VRE 51299; vanB VRE 51299, the 3rd table, read-out: MIC", "result": 2, "unit": "µg/mL"},
      {"measurement": "bacterial count reduction in thigh tissue relative to the vehicle control group", "setting": "S. aureus VRS-2", "result": 100, "unit": "%"},
      {"measurement": "effect relative to the baseline control", "setting": "S. aureus VRS-2; FIG. 9", "result": "bacteriostatic effect"},
      {"measurement": "time-dependent killing profile", "setting": "S. aureus (strain HG003)", "result": "roughly matched vancomycin at the same concentration"},
      {"measurement": "time-dependent killing profile", "setting": "MRSA (strain LAC)", "result": "roughly matched vancomycin at the same concentration"},
      {"measurement": "single dose at which no viable bacterial cells were detected in the treatment supernatant", "setting": "MSSA ATCC 25923 biofilm; MSSA ATCC 25923, detection limit 10^2, FIG. 5", "result": "at least 16 μg/mL"},
      {"measurement": "viable biofilm-embedded bacterial cells", "setting": "MSSA ATCC 25923 biofilm; MSSA ATCC 25923 biofilm, 24 hours after a single treatment at twice the MBEC, FIG. 6", "result": "no viable biofilm-embedded bacterial cells were detected"}
    ]},
    {"smiles": "CCC1C(c2ccc(C(F)(F)F)cc2)=C(O)C(=O)N1CCCNCCCCNC", "note": "(centres unmarked) [Compound 8]", "values": [
      {"measurement": "bacterial count reduction in thigh tissue relative to the vehicle control group", "setting": "S. aureus VRS-2", "result": 100, "unit": "%"}
    ]},
    {"smiles": "CN[C@H](CC(C)C)C(=O)N[C@H]1C(=O)N[C@@H](CC(N)=O)C(=O)N[C@H]2C(=O)N[C@H]3C(=O)N[C@H](C(=O)N[C@H](C(=O)O)c4cc(O)cc(O)c4-c4cc3ccc4O)[C@H](O)c3ccc(c(Cl)c3)Oc3cc2cc(c3O[C@@H]2O[C@H](CO)[C@@H](O)[C@H](O)[C@H]2O[C@H]2C[C@](C)(N)[C@H](O)[C@H](C)O2)Oc2ccc(cc2Cl)[C@H]1O", "note": "[Vancomycin, vancomycin, reference compound]", "values": [
      {"measurement": "MIC", "setting": "vanA VRE 700221; VRE", "result": 512, "unit": "µg/mL"},
      {"measurement": "MIC", "setting": "vanA VRE 700221; VRE, read-out: MIC (vanA VRE 700221)", "result": 512, "unit": "µg/mL"},
      {"measurement": "MIC", "setting": "vanB VRE 51299; VRE", "result": 256, "unit": "µg/mL"},
      {"measurement": "MIC", "setting": "vanB VRE 51299; VRE, read-out: MIC (vanB VRE 51299)", "result": 256, "unit": "µg/mL"},
      {"measurement": "MIC of vancomycin for VRS-2 (strain description)", "setting": "VRSA", "result": "> 64", "unit": "µg/mL"},
      {"measurement": "antibiotic resistance profile of VRS-2: vancomycin", "setting": "VRSA", "result": "> 64", "unit": "µg/mL"}
    ]}
  ]
}
